Data taken from PubChem BioAssay AID248 (DTP/NCI, 2004).
Values joined by “and” are separate entries in the source; they are usually repeats but may differ in a detail not shown here. Equal entries are not always repeated. Inconclusive results and toxic doses are left out. Cut-off read from the data, not from the text of the source: active = T/C of 150% or more; inactive = T/C below 125%.

Test system: L1210 leukemia ip in BDF1 mice, survival T/C
Assay: NCI In Vivo Anticancer Drug Screen. Data for tumor model L1210 Leukemia (intraperitoneal) in B6D2F1 (BDF1) mice
Conditions: endpoint: mean survival time, higher = longer survival
In short: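 Read-out is survival time, reported as the treated-group measurement over the vehicle-control measurement.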

[1] = dose: 100.0 mg/kg/injection, schedule: Q04DX002 (ip), vehicle: saline
[2] = dose: 100.0 mg/kg/injection, schedule: Q04DX003 (ip), vehicle: saline
[3] = dose: 200.0 mg/kg/injection, schedule: Q04DX003 (ip), vehicle: saline
[4] = dose: 100.0 mg/kg/injection, schedule: Q01DX009 (ip), vehicle: Klucel (hydroxypropylcellulose) (HPC)

Measured: T/C

NC1CCCCCCC1O (stereo not given)
inactive: dose: 5.0 mg/kg/injection, schedule: Q01DX009 (ip), vehicle: saline with Tween-80 105 % of control | dose: 10.0 mg/kg/injection, schedule: Q01DX009 (ip), vehicle: saline with Tween-80 94 % of control | dose: 20.0 mg/kg/injection, schedule: Q01DX009 (ip), vehicle: saline with Tween-80 100 % of control

CCOc1ccc(OCC)c(NC(=O)Nc2ccccc2Cl)c1
inactive: dose: 200.0 mg/kg/injection, schedule: Q04DX002 (ip), vehicle: saline with Tween-80 90 % of control | dose: 400.0 mg/kg/injection, schedule: Q04DX002 (ip), vehicle: saline with Tween-80 87 % of control

O=S(=O)(O)SCC1=NCCN1
inactive: dose: 25.0 mg/kg/injection, schedule: Q04DX002 (ip), vehicle: saline 103 % of control | dose: 50.0 mg/kg/injection, schedule: Q04DX002 (ip), vehicle: saline 93 % of control | [1] 98 % of control

COc1ccc(/C(C#N)=C2C=C(Cl)/C(=N/O)C=C/2Cl)cc1
inactive: dose: 100.0 mg/kg/injection, schedule: Q01DX001 (ip), vehicle: saline 91 % of control | dose: 100.0 mg/kg/injection, schedule: Q01DX009 (ip), vehicle: saline with Tween-80 93 % of control | [2] 91 % of control | dose: 200.0 mg/kg/injection, schedule: Q01DX001 (ip), vehicle: saline 95 % of control | dose: 200.0 mg/kg/injection, schedule: Q01DX009 (ip), vehicle: saline with Tween-80 98 % of control | [3] 87 % of control | dose: 400.0 mg/kg/injection, schedule: Q01DX001 (ip), vehicle: saline 96 % of control | dose: 400.0 mg/kg/injection, schedule: Q04DX003 (ip), vehicle: saline 86 % of control

CCN(CC)CCN1C(=O)c2ccccc2S1(=O)=O
inactive: dose: 44.0 mg/kg/injection, schedule: Q01DX Z (ip), vehicle: saline 100 % of control | dose: 66.0 mg/kg/injection, schedule: Q01DX Z (ip), vehicle: saline 98 % of control | dose: 100.0 mg/kg/injection, schedule: Q01DX Z (ip), vehicle: saline 98 % of control

CC[C@@]1(O)C[C@H](OC2CC(N(C)C)C(OC3CC(O)C(O[C@@H]4O[C@@H](C)C(=O)C=C4N)C(C)O3)C(C)O2)c2c(cc3c(c2O)C(=O)c2c(O)ccc(O)c2C3=O)[C@H]1C(=O)OC (stereo not given in full)
inactive: dose: 0.05 mg/kg/injection, schedule: Q01DX009 (ip), vehicle: suspension in saline 117 % of control | dose: 0.05 mg/kg/injection, schedule: Q09DX009 (ip), vehicle: saline 104 % of control | dose: 0.1 mg/kg/injection, schedule: Q05DX005 (ip), vehicle: saline 106 % of control | dose: 0.1 mg/kg/injection, schedule: Q09DX009 (ip), vehicle: saline 106 % of control | dose: 0.2 mg/kg/injection, schedule: Q01DX009 (ip), vehicle: suspension in saline 111 % of control | dose: 0.2 mg/kg/injection, schedule: Q03DX003 (ip), vehicle: saline 118 % of control | dose: 0.2 mg/kg/injection, schedule: Q05DX005 (ip), vehicle: saline 122 % of control | dose: 0.2 mg/kg/injection, schedule: Q09DX009 (ip), vehicle: saline 111 % of control | dose: 0.4 mg/kg/injection, schedule: Q01DX001 (ip), vehicle: saline 111 % of control | dose: 0.4 mg/kg/injection, schedule: Q01DX009 (ip), vehicle: suspension in saline 100 % of control | dose: 0.4 mg/kg/injection, schedule: Q03DX003 (ip), vehicle: saline 108 % of control | dose: 0.8 mg/kg/injection, schedule: Q01DX001 (ip), vehicle: saline 118 % of control | dose: 0.8 mg/kg/injection, schedule: Q01DX009 (ip), vehicle: suspension in saline 100 % of control | dose: 1.6 mg/kg/injection, schedule: Q01DX001 (ip), vehicle: saline 113 % of control | dose: 1.6 mg/kg/injection, schedule: Q05DX005 (ip), vehicle: saline 115 % of control | dose: 1.6 mg/kg/injection, schedule: Q09DX009 (ip), vehicle: saline 104 % of control | dose: 3.2 mg/kg/injection, schedule: Q03DX003 (ip), vehicle: saline 101 % of control | dose: 3.2 mg/kg/injection, schedule: Q05DX005 (ip), vehicle: saline 118 % of control | dose: 6.4 mg/kg/injection, schedule: Q03DX003 (ip), vehicle: saline 122 % of control

O=C(O)c1ccc(CO)o1
inactive: dose: 50.0 mg/kg/injection, schedule: Q01DX009 (ip), vehicle: Klucel (hydroxypropylcellulose) (HPC) 107 % of control | [4] 93 % of control

Cc1nccn1-c1ccc(Cl)cc1N=Cc1ccc(N(CCCl)CCCl)cc1
inactive: dose: 100.0 mg/kg/injection, schedule: Q04DX002 (ip), vehicle: Klucel (hydroxypropylcellulose) (HPC) 98 % of control | dose: 200.0 mg/kg/injection, schedule: Q04DX002 (ip), vehicle: Klucel (hydroxypropylcellulose) (HPC) 102 % of control | dose: 400.0 mg/kg/injection, schedule: Q04DX002 (ip), vehicle: Klucel (hydroxypropylcellulose) (HPC) 102 % of control

O=C(NCCCCCCNC(=O)NCc1ccc(Cl)c(Cl)c1)NCc1ccc(Cl)c(Cl)c1
inactive: dose: 100.0 mg/kg/injection, schedule: Q01DX009 (ip), vehicle: other 97 % of control | dose: 200.0 mg/kg/injection, schedule: Q01DX009 (ip), vehicle: other 86 % of control | dose: 400.0 mg/kg/injection, schedule: Q01DX009 (ip), vehicle: other 95 % of control

CC(O)(c1ccccc1)C1C(c2ccccc2)N1Cc1ccccc1 (stereo not given)
inactive: dose: 100.0 mg/kg/injection, schedule: Q04DX003 (ip), vehicle: saline sonified 96 % of control | dose: 200.0 mg/kg/injection, schedule: Q04DX003 (ip), vehicle: saline sonified 94 % of control | dose: 400.0 mg/kg/injection, schedule: Q04DX003 (ip), vehicle: saline sonified 91 % of control

O=S(=O)(Nc1cccc(C(F)(F)F)c1)c1cc(Cl)c(Cl)cc1Cl
inactive: dose: 50.0 mg/kg/injection, schedule: Q01DX009 (ip), vehicle: carboxymethylcellulose (CMC) 86 % of control | dose: 75.0 mg/kg/injection, schedule: Q04DX003 (ip), vehicle: carboxymethylcellulose (CMC) 94 % of control | dose: 100.0 mg/kg/injection, schedule: Q04DX002 (ip), vehicle: carboxymethylcellulose (CMC) 100 % of control and 102 % of control | dose: 150.0 mg/kg/injection, schedule: Q04DX003 (ip), vehicle: carboxymethylcellulose (CMC) 94 % of control | dose: 200.0 mg/kg/injection, schedule: Q04DX002 (ip), vehicle: carboxymethylcellulose (CMC) 97 % of control | dose: 300.0 mg/kg/injection, schedule: Q04DX003 (ip), vehicle: carboxymethylcellulose (CMC) 100 % of control | dose: 400.0 mg/kg/injection, schedule: Q04DX002 (ip), vehicle: carboxymethylcellulose (CMC) 101 % of control and 91 % of control

CN(C)CC(Oc1ccccc1)c1ccccc1 (stereo not given)
inactive: [1] 98 % of control

CCOc1ccc(C2NC(=O)c3ccccc3N2)cc1 (stereo not given)
inactive: [4] 104 % of control | dose: 100.0 mg/kg/injection, schedule: Q04DX003 (ip), vehicle: Klucel (hydroxypropylcellulose) (HPC) 91 % of control | dose: 200.0 mg/kg/injection, schedule: Q01DX009 (ip), vehicle: Klucel (hydroxypropylcellulose) (HPC) 97 % of control | dose: 200.0 mg/kg/injection, schedule: Q04DX003 (ip), vehicle: Klucel (hydroxypropylcellulose) (HPC) 98 % of control | dose: 400.0 mg/kg/injection, schedule: Q01DX009 (ip), vehicle: Klucel (hydroxypropylcellulose) (HPC) 97 % of control | dose: 400.0 mg/kg/injection, schedule: Q04DX003 (ip), vehicle: Klucel (hydroxypropylcellulose) (HPC) 98 % of control

CN(CCc1cnc2nc(N)nc(N)c2n1)c1ccc(C(=O)NC(CCC(=O)O)C(=O)O)cc1 (stereo not given)
inactive: dose: 12.5 mg/kg/injection, schedule: Q01DX009 (ip), vehicle: Klucel (hydroxypropylcellulose) (HPC) 113 % of control | dose: 25.0 mg/kg/injection, schedule: Q01DX009 (ip), vehicle: Klucel (hydroxypropylcellulose) (HPC) 118 % of control | [2] 110 % of control | [3] 105 % of control

CCOC(=O)/C=C/Sc1ccccc1
inactive: dose: 12.5 mg/kg/injection, schedule: Q04DX002 (ip), vehicle: saline with Tween-80 98 % of control | dose: 25.0 mg/kg/injection, schedule: Q04DX002 (ip), vehicle: saline with Tween-80 98 % of control | dose: 50.0 mg/kg/injection, schedule: Q04DX002 (ip), vehicle: saline with Tween-80 91 % of control
